# Experimental data taken from patent publication US9649373B2, “Neoseptins: small molecule adjuvants” (THE SCRIPPS RESEARCH INSTITUTE, priority 2013, dated 2017).
# Experiments:
# [1] = target: T1, TLR4 (Mus musculus, UniProt Q9JHF9+Q9QUK6); assay: Mouse peritoneal macrophage agonist assay (TNF-α ELISA); type: cell-based; set-up: used to inject mice intraperitoneally; endogenous in cells; host or cells: mouse peritoneal exudate cells (thioglycolate-elicited peritoneal macrophages); conditions: for TLR4 agonist efficacy: relative to neoseptin-1 or LPS; for EC50: read-out: EC50 of dose-response curves, TLR4 agonist activity
# T1 sequence (Q9QUK6 26-835): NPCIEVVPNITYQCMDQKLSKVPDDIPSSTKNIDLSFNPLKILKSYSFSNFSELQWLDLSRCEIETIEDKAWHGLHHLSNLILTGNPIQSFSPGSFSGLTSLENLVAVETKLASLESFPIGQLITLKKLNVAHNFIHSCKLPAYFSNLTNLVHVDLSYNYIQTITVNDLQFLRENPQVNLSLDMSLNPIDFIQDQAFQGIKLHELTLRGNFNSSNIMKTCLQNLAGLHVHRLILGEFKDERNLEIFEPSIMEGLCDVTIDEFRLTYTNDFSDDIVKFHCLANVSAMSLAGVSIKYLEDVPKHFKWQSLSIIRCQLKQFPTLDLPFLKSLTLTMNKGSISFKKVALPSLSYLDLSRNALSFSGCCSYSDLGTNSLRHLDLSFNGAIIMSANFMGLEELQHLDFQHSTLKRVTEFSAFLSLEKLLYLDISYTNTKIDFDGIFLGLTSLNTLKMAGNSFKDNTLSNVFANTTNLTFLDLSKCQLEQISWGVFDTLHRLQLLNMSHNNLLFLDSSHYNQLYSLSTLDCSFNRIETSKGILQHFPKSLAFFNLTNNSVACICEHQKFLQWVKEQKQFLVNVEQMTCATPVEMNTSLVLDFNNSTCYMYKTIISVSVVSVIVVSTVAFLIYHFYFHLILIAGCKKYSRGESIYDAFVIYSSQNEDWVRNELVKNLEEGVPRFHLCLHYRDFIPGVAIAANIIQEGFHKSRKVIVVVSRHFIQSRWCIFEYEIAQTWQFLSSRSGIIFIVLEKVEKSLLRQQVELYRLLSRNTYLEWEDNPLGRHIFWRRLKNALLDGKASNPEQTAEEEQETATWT
# T1 sequence (Q9JHF9 19-160): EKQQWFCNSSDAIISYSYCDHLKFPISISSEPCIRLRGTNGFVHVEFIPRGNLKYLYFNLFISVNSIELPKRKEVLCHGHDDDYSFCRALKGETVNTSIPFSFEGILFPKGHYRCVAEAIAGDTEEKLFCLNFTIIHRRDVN
# Procedure: Mouse Peritoneal Macrophage Agonist Assay
# Three to four days prior to PEC isolation, 3 mL syringes filled with Brewer's thioglycolate medium are used to inject mice intraperitoneally with 1.5-2 mL through a 25-gauge needle.
# Immediately prior to isolation, mice are anaesthetized under isofluorane vapour (2-5% v/v, 2% O2).
# 5 mL syringes filled with sterile PBS are used to recover PECs by lavage through an 18-gauge needle. Once obtained, exudate is added to 5 mL of PEC recovery solution in a 15 mL conical tube, and stored on ice.
# Tubes containing exudate are centrifuged for 3 minutes at 1200 rpm in a tabletop centrifuge, and supernatant is replaced with 1-4 mL of PEC medium. Pelleted cells are resuspended by pipeting, and a 10 μL aliquot is taken for cell enumeration.
# The concentration of each cell sample is adjusted to 1×10^6 cells/mL using PEC medium, and 100 μL of each sample (1×10^5 cells) is added to a tissue culture-treated 96 well flat-bottomed plate, leaving two columns (11 & 12) unoccupied per plate. Plates are incubated at 37° C./5% CO2 in a humidified incubator for at least 1 hour to permit cells to adhere to the plate, during which time 125-03 solutions are prepared.
# Following preincubation of PECs in the 96-well plate, non-adherent PECs are discarded along with residual medium, and 50 μM of compounds to be assayed are added to the cells. Plates are incubated for a further 4 hours.
# Conditioned supernatant is collected into another 96 well plate and retained for TNF ELISA Assay. The cells are replaced with 100 μL/well of a 1:4 MTT solution:PEC medium solution (MTT 1 mg/mL final concentration). PEC plates are incubated at 37° C./5% CO2 overnight (about 18 hours). Supernatants are removed and 100 μL DMSO is added to each well. The plate is shaken for 10 minutes and read at 570 nm. This value is used to measure the cytotoxicity of the compounds.
# Coat ELISA plate with 100 μL/well of capture antibody in Coating Buffer. Seal the plate and incubate overnight (about 18 hours) at 4° C.
# Aspirate wells and wash 4× with 300 μL/well Wash Buffer. Blot plate on absorbent paper to remove residual buffer.
# Dilute 1 part 5× concentrated Assay Diluent with 4 parts DI water. Block wells with 200 μL/well of 1× Assay Diluent. Incubate at room temperature for 1 hour or 4° C. overnight (about 18 hours).
# Aspirate and wash at twice with Wash Buffer.
# Using 1× Assay Diluent to perform 2-fold serial dilutions of the top standards to make the standard curve for a total of 8 points: 1000, 500, 250, 125, 62.5, 31.25, 15.625, 0 pg/ml. Add 100 μL/well of top standard concentration to the appropriate wells. Add 65 μL/well assay diluent plus 35 μL samples to the wells. Seal the plate and incubate at room temperature for 2 hours [or overnight (about 18 hours) at 4° C.]
# Aspirate/wash 4 times with wash buffer.
# Add 100 μL/well of detection antibody diluted in 1× Assay diluent. Seal the plate and incubate at room temperature for 1 hour.
# Aspirate/wash. Repeat for a total of 4 washes.
# Add 100 μL/well of Avidin-HRP diluted in 1× Assay diluent. Seal the plate and incubate at room temperature for 30 minutes.
# Aspirate and wash. Repeat for a total of 5 washes.
# Add 100 μL/well of Substrate Solution to each well. Incubate plate at room temperature for 2-3 minutes.
# Add 50 μL/well of Stop Solution, and read plate at 450 nm.
# [2] = target: T1, TLR4; assay: TNF-α production in macrophages from mice with disabling germline mutations or knockouts of TLRs and downstream signaling proteins; type: cell-based; set-up: normalized TNF-α production in macrophages from mice; endogenous in cells; host or cells: macrophages from wild-type and mutant/knockout mice; conditions: for Genes on which induced TNF-α production depends / mechanism of signaling: mutant or knockout mouse macrophages, 5 ng/ml LPS or 50 mM neoseptin-3 (FIG. 1)
# Procedure: FIG. 1 in two parts as FIG. 1A and FIG. 1B are bar graphs that illustrate an assay of normalized TNF-α production in macrophages from mice containing disabling germline mutations or knockouts of genes encoding TLRs and downstream signaling proteins using 5 ng/ml of LPS or […] neoseptin-3.
# (§1) See, (a) mutagenetix.utsouthwestern.edu.; (b) Arnold et al., (2012) ENU-induced phenovariance in mice: Inferences from 587 mutations. BMC Res. Notes. 5, 577-0500-5-577.
# [3] = test system: C57BL/6J mice; assay: In vivo adjuvant effect, intramuscular co-injection with ovalbumin, serum OVA-specific IgG ELISA; set-up: species or system mouse
# Procedure: FIG. 3, in two panels as FIG. 3A and FIG. 3B, are graphs that illustrate ELIZA results for the adjuvant effect of neoseptin-3. In FIG. 3A, adjuvants were mixed with ovalbumin (OVA, 100 μg) and injected intramuscularly into C57BL/6J mice at the indicated doses. Two immunizations were administered with a booster given at 7 days. In FIG. 3B, LPS (0.2 mg/kg), neoseptin-3 (250 mg/kg) or monophosphoryl lipid A from Salmonella minnesota R595 (MPLA) (0.2 mg/kg) were mixed with ovalbumin (OVA, 0, 1, 10, and 100 μg) Serum levels of OVA-specific IgG were measured (ELISA) on indicated days post-immunization.
# FIG. 9 is a graph similar to FIG. 3 showing anti-olvalbumin titers at 14 days post immunization using adjuvants with ovalbumin (OVA, 100 μg) and injected intramuscularly into C57BL/6J mice. The adjuvants used were neoseptin-3, LPS, MPLA, and alum in the amounts shown.
# It is remarkable that such a small molecule can display such exquisite structural selectivity for activating the immune response and to do so in a way that is so mechanistically specific and well-defined. {See, (a) Vogel Clin. Infect. Dis. 30 (Suppl 3):S266-S270 (2000); (b) Guy, Nat. Rev. Microbiol. 5:505-517 (2007); (c) Johnson, Curr. Top. Med. Chem. 8:64-79 (2008); and (d) Persing et al., Trends Microbiol. 10:S32-S37 (2002) and the citations therein for the procedures utilized.] […]
# [4] = test system: type I interferon response; assay: Type I interferon response, release of INF-β / INF-α (FIG. 2); type: cell-based
# [5] = test system: NF-κB, P38 MAPK, JNK, and Erk signaling pathways; assay: Activation of signaling pathways; type: cell-based
# Source text: as §1
# [6] = target: T2, MD-2 (UniProt Q9JHF9); assay: Isothermal titration calorimetry binding to MD-2
# T2 sequence (Q9JHF9 1-160): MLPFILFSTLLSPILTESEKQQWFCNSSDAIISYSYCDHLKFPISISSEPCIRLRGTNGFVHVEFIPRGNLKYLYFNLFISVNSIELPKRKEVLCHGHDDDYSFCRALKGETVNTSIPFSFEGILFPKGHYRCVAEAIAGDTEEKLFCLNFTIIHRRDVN
# [7] = Overt toxicity on in vivo administration as adjuvant; conditions: at the maximum doses capable of administration
# Source text: Thus, a contemplated Compound of Formula I acts as an agonist at the TLR4 receptor in that it binds to the TLR4 receptor of a cell and triggers a response by that cell, thereby mimicking the action of LPS, without the toxic result from using LPS as an adjuvant.
# It is remarkable that such a small molecule can display such exquisite structural selectivity for activating the immune response and to do so in a way that is so mechanistically specific and well-defined. {See, (a) Vogel Clin. Infect. Dis. 30 (Suppl 3):S266-S270 (2000); (b) Guy, Nat. Rev. Microbiol. 5:505-517 (2007); (c) Johnson, Curr. Top. Med. Chem. 8:64-79 (2008); and (d) Persing et al., Trends Microbiol. 10:S32-S37 (2002) and the citations therein for the procedures utilized.]
smiles,measurement,setting,value
N[C@@H](Cc1ccccc1)C(=O)Nc1ccc(C(=O)N[C@@H](CCc2ccccc2)C(=O)O)cc1CCc1ccc(O)cc1 [MM-1-88],TLR4 agonist efficacy,[1],significant enhancement in TLR4 agonist efficacy
N[C@@H](Cc1ccccc1)C(=O)Nc1ccc(C(=O)N[C@@H](CCc2ccccc2)C(=O)O)cc1OCCc1ccc(O)cc1 [neoseptin-1],Genes on which induced TNF-α production depends / mechanism of signaling,[2],established to be TLR4
CC(C)(C)OC(=O)[C@H](CCc1ccccc1)NC(=O)c1ccc(N)c(CCc2ccc(O)cc2)c1 [neoseptin-3],EC50,[1],15 to 25 µM
same,TLR4 agonist efficacy,[1],nearly matching the efficacy of LPS
same,Effect of antagonist eritoran on TLR4 agonist activity,[1]; with eritoran,blocked by the antagonist eritoran
same,In vivo adjuvant immune response compared with LPS,"[3]; co-injected with ovalbumin, intramuscular (FIG. 3)",more sustained immune response of equal or greater efficacy than LPS
same,In vivo adjuvant immune response compared with alum,"[3]; ovalbumin 100 μg i.m., 14 days post immunization (FIG. 9)",much more robust immune response in vivo than does alum
same,Genes on which induced TNF-α production depends / mechanism of signaling,[2],"dependent on TLR4, MD-2, MyD88, Trif, TRAM, MAL, IRAK4, and IKBKG"
same,CD14 dependence of induced TNF-α production,[2]; unlike LPS,independent of CD14
same,Release of INF-β (type I interferon response) compared with LPS,[4],much more effectively stimulates a type I interferon response resulting in the release of INF-β
same,Activation of signaling pathways,[5],"activate the NF-κB, P38 MAPK, JNK, and Erk signaling pathways"
same,Affinity for MD-2 relative to MPLA,[6]; ITC direct binding,slightly better than that of MPLA itself
same,Kd,"[6]; ITC, 20 μM neoseptin-3 with 350 μM MD-2",11.7 µM
same,Overt toxicity,[7],does not display the overt toxicity
CC(C)(C)OC(=O)[C@H](CCc1ccccc1)NC(=O)c1ccc(N)c(OCCc2ccc(O)cc2)c1 [neoseptin-4],EC50,[1],15 to 25 µM
same,TLR4 agonist efficacy,[1],nearly matching the efficacy of LPS
